# Data: patent publication US11230535B2, “CFTR regulators and methods of use thereof” (THE REGENTS OF THE UNIVERSITY OF CALIFORNIA, priority 2015, dated 2022)
# Molecular target: human wild-type CFTR (Homo sapiens, UniProt P13569)
# Assay: Cell-based plate reader (YFP iodide influx) assay of CFTR function
# Design: expressed in transfected cells; host or cells: Fischer rat thyroid (FRT) cells stably co-expressing YFP-H148Q
# Conditions: N-methyl-N′-phenyl-1,3,5-triazine diamine analogs; read-out: EC50
# Procedure: The initiate rate of I^− influx was computed by determined using exponential regression. All compound plates contained negative controls (DMSO vehicle) and positive controls (20 μM forskolin).
# High-throughput screening. […] The initiate rate of I^− influx was computed by determined using exponential regression. All compound plates contained negative controls (DMSO vehicle) and positive controls ([…] forskolin).
# Platereader assays of chloride channel function. CFTR activity was assayed as described. […] I^− influx was measured in a plate reader with initial baseline read for 2 s and then for 12 s after rapid addition of an I^−-containing solution. TMEM16A activity was assayed similarly as described using FRT cells co-expressing YFP and TMEM16A. Activity of non-TMEM16A CaCC was assayed as described in HT-29 cells expressing YFP. In each assay initial rates of I^− influx were computed as a linear measure of channel function.
# Sequence of human wild-type CFTR (P13569 whole entry): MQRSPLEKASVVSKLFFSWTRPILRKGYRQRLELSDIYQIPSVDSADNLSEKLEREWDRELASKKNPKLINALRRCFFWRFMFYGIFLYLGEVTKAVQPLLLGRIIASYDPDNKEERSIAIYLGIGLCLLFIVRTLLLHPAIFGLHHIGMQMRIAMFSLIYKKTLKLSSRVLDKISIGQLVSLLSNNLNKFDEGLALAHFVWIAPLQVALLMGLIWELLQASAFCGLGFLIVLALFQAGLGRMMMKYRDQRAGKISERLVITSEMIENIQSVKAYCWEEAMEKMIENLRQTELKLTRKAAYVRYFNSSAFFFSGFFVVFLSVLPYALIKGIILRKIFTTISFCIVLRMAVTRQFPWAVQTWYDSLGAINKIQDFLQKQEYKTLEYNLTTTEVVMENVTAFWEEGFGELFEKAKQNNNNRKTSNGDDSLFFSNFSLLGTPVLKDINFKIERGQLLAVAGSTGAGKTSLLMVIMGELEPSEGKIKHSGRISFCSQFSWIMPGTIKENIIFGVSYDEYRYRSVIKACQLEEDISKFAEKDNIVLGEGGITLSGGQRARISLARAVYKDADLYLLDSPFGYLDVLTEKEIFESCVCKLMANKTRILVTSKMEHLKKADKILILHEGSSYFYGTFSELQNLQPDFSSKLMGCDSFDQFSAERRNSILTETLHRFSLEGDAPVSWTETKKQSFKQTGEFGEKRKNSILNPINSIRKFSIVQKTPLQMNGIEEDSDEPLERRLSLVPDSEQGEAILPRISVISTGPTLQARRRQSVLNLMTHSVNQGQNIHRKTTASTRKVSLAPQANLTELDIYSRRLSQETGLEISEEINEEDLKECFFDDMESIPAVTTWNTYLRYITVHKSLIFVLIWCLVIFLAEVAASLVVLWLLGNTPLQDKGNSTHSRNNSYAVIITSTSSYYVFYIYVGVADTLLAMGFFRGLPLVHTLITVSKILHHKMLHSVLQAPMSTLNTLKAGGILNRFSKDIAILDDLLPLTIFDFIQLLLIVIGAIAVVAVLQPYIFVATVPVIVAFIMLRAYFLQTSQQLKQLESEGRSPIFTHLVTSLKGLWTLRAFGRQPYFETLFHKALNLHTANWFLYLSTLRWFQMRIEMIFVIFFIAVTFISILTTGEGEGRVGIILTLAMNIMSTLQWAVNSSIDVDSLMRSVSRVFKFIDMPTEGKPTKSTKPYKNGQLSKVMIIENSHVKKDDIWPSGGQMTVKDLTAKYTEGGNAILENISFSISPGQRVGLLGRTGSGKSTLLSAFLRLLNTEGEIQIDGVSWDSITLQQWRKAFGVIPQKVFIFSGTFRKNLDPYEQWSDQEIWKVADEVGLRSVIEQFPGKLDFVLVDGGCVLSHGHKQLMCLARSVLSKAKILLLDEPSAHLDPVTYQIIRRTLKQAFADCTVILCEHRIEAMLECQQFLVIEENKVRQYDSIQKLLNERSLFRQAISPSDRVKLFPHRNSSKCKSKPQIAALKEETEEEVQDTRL
row,Compound,EC50
1,CNc1nc(Nc2ccccc2)nc(OC(C(F)(F)F)C(F)(F)F)n1 [compound 11],120 nM

# Same assay, conditions: commercial analogs; FRT cells with YFP and wildtype CFTR, 125 nM forskolin
row,Compound,% Activation
1,FC(F)(F)COc1nc(Nc2ccc(OC(F)(F)F)cc2)nc(N2CCCCC2)n1 [K073],19%
2,FC(F)(F)COc1nc(N2CCCCC2)nc(N(c2ccccc2)c2ccccc2)n1 [K057],28%
3,CCOc1nc(Nc2ccc(I)cc2C)nc(NC2CCCCC2)n1 [K054],14%
4,FC(F)(F)COc1nc(Nc2ccc(OC(F)(F)F)cc2)nc(N2CCOCC2)n1 [K072],31%
5,FC(F)(F)COc1nc(Nc2ccc(OC(F)(F)Cl)cc2)nc(N2CCN(c3cccc(Cl)c3)CC2)n1 [K081],24%
6,COc1nc(Nc2ccc(I)cc2)nc(OC2CCCCC2)n1 [K042],15%
7,CCOc1nc(NCCN2CCOCC2)nc(Nc2ccc([N+](=O)[O-])cc2)n1 [K090],52%
8,FC(F)(F)C(Oc1nc(N2CCCCCC2)nc(N(c2ccccc2)c2ccccc2)n1)C(F)(F)F [K063],41%
9,CCOc1nc(Nc2ccc(-c3nc4ccccc4o3)cc2)nc(N2CCOCC2)n1 [K066],87%
10,CCOc1nc(NCCO)nc(Nc2ccc(-c3nc4ccccc4o3)cc2)n1 [K068],84%
11,CCCCCCNc1nc(Nc2ccc(Cl)cc2)nc(OCC)n1 [K036],46%
12,CCCCCCNc1nc(Nc2ccc(I)cc2)nc(OC)n1 [K039],27%
13,COc1nc(Nc2ccc(Cl)cc2)nc(NC(C)(C)C)n1 [K022],53%
14,COc1nc(NCCO)nc(Nc2ccc([N+](=O)[O-])cc2)n1 [K047],17%
15,CN(C)c1nc(OC(C(F)(F)F)C(F)(F)F)nc(N(c2ccccc2)c2ccccc2)n1 [K055],42%
16,C=CCNc1nc(Nc2ccc([N+](=O)[O-])cc2)nc(OC)n1 [K048],46%
17,COc1nc(NCCN2CCOCC2)nc(Nc2ccccc2)n1 [K021],16%
18,CCOc1nc(NCCO)nc(Nc2ccc([N+](=O)[O-])cc2)n1 [K049],28%
19,C=CCNc1nc(Nc2ccc(I)cc2C)nc(OCC)n1 [K053],24%

# More lines, now with the values ahead:
row,% Activation,Compound
1,25%,CCCCNc1nc(Nc2ccc(OC(F)(F)Cl)cc2)nc(OCC(F)(F)F)n1 [K085]
2,9%,CC(C)(C)Nc1nc(Nc2ccc(OC(F)(F)Cl)cc2)nc(OCC(F)(F)F)n1 [K029]
3,21%,FC(F)(F)C(Oc1nc(Nc2ccccc2)nc(OC(C(F)(F)F)C(F)(F)F)n1)C(F)(F)F [K010]
4,16%,FC(F)(F)COc1nc(Nc2ccc(OC(F)(F)Cl)cc2)nc(OCC(F)(F)F)n1 [K026]
5,41%,COc1nc(Nc2ccc([N+](=O)[O-])cc2)nc(OC)n1 [K023]
6,64%,CNc1nc(Nc2ccc(OC(F)(F)Cl)cc2)nc(OCC(F)(F)F)n1 [K024]
7,61%,COc1nc(Nc2ccc(O)cc2)nc(OC(C(F)(F)F)C(F)(F)F)n1 [K031]
8,22%,CCC(C)Nc1nc(Nc2ccc(OC(F)(F)Cl)cc2)nc(OCC(F)(F)F)n1 (stereo not drawn) [K084]
9,6%,O=[N+]([O-])c1ccc(Nc2nc(OC(C(F)(F)F)C(F)(F)F)nc(OC(C(F)(F)F)C(F)(F)F)n2)cc1 [K015]
10,40%,FC(F)(F)COc1nc(Nc2ccc(OC(F)(F)F)cc2)nc(NC2CC2)n1 [K079]
11,63%,C=CCNc1nc(Nc2ccc(F)cc2)nc(OC(C(F)(F)F)C(F)(F)F)n1 [K002]

# Same assay, conditions: commercial analogs; read-out: EC50 (full-dose response assay, compounds >80% activation)
row,EC50,Compound
1,2900 nM,CCOc1nc(Nc2ccc(-c3nc4ccccc4o3)cc2)nc(N2CCOCC2)n1 [K066]
2,4100 nM,CCOc1nc(NCCO)nc(Nc2ccc(-c3nc4ccccc4o3)cc2)n1 [K068]
